Measured values taken from patent US20110288154A1, “RNA Interference Mediated Inhibition of Epithelial Sodium Channel (ENaC) Gene Expression Using Short Interfering Nucleic Acid (siNA)” (MERCK & CO., INC., priority 2008, published 2011).
pIC50: −log10 of the molar value. [invAb] = inverted abasic unit; m = 2'-O-methyl; r = 2'-OH (RNA); f = 2'-fluoro

System: ENaCα mRNA
Test: Screening of ENaCα siNAs in human A549 cells (quantitative RT-PCR)
Assay type: cell-based
Parameters: Percent Reduction of the ENaCα mRNA relative to a non-targeting control siNA (NTC): concentration or dose not given beside the values
Conditions: for Avg ENaCα Expression / Mean (level of ENaCα expression normalized to the level of GAPDH) / Percent Reduction of the ENaCα mRNA relative to a non-targeting control siNA (NTC) / Avg GAPDH Expression: human A549 cells, n = 3; for Avg ENaCα Expression: 25 nM siNA with Lipofectamine 2000, harvested 24 hours post-transfection; for Mean (level of ENaCα expression normalized to the level of GAPDH) / Percent Reduction of the ENaCα mRNA relative to a non-targeting control siNA (NTC) / Avg GAPDH Expression: 24 hours post-transfection; for Avg GAPDH Expression: housekeeping gene used for normalisation; for pIC50 / Human % KD (efficacy of ENaCα mRNA knockdown): human cell line; for pIC50: dose response, read-out: Human IC50 (potency of ENaCα mRNA knockdown); for Human % KD (efficacy of ENaCα mRNA knockdown): summary
Experimental: siNA constructs (Table 1b) may be tested for efficacy in reducing ENaC RNA expression in, for example, A549 human lung carcinoma cells. A549 (human; ATCC cat# CCL-185) cells were cultured at 37° C. in the presence of 5% CO2 and grown in Ham's F12K medium with 2 mM L-glutamine adjusted to contain 1.5 g/L sodium bicarbonate and supplemented with fetal bovine serum at a final concentration of 10% and 100 U/mL penicillin. The A549 cells were plated approximately 24 hours before transfection in 96-well plates at 7,500 cells/well, 100 μl/well. After 24 hours complexes containing siNA and Lipofectamine 2000 (Invitrogen) were created as follows: a solution of Lipofectamine 2000 in OPTI-MEM was prepared containing Lipofectamine 2000 at a final concentration of 14 μg/ml. In parallel, solutions of the siNAs were prepared in OPTI-MEM at a final concentration of 150 nM. After both solutions were incubated at 20° C. for 20 minutes an equal volume of the siNA solutions and the Lipofectamine 2000 solution were added together for each of the siNAs. The resultant solution has the siNAs at a final concentration of 75 nM and Lipofectamine 2000 at a final concentration of 7 μg/ml. This solution was incubated at 20° C. for 20 minutes. After incubation 50 μl of the solution were added to each of the wells (in triplicate). The final concentration of siNA in each well was 25 nM and the final concentration of Lipofectamine 2000 in each well was 2.33 μg/ml. […] Dose response curves were determined in a similar manner with each concentration being done in triplicate and maintaining a constant amount of Lipofectamine 2000 in each transfection.
RNA was extracted from 96-well plates using the Invitek Invisorb RNA Cell HTS 96 Kit/C (Cat# 70619000) with a slightly modified protocol. The details of the protocol for isolating RNA from each plate are described as follows:
1) Aspirate media with rake 2) Add 150 ul/well Lysis buffer 3) Place on plate shaker for 1 minute 4) Place DNA binding plate on top of 0.5 ml collection plate 5) Pipette 190 ul up and down twice and add to DNA binding plate 6) Cover plate 7) Centrifuge plates 4 minutes at 4000 RPM 8) Discard DNA binding plate 9) Place the RNA binding plate on top of 2 ml collection plate 10) Add 150 ul/well of Binding Buffer R to 0.5 ml collection plate 11) Move contents of 0.5 ml collection plate to RNA binding plate 12) Let incubate for 1 minute 13) Centrifuge plates 4 minutes at 4000 RPM 14) Add 600 ul/well of Wash Buffer R1 to RNA binding plate 15) Centrifuge plates 4 minutes at 4000 RPM 16) Dump wash buffer from 2 ml collection plate 17) Add 400 ul/well of Wash Buffer R2 to RNA binding plate 18) Centrifuge plates 4 minutes at 4000 RPM 19) Add 400 ul/well of Wash Buffer R2 to RNA binding plate 20) Centrifuge plates 10 minutes at 4000 RPM 21) Dump wash buffer from 2 ml collection plate 22) Centrifuge plates 3 minutes at 4000 RPM 23) Discard 2 ml collection plate and place RNA binding plate on to microtiter plate 24) Add 100 ul/well of elution buffer to RNA binding plate 25) Incubate for 2 minutes 26) Seal plate 27) Centrifuge plates 3 minutes at 4000 RPM 28) Discard RNA binding plate 29) Cover microtiter plate for storage in −80 freezer
A series of probes and primers were used to detect the various mRNA transcripts of the genes of ENaCa and GAPDH in mouse, rat, and human cell lines. The assays were performed on an ABI 7500 instrument, according to the manufacturer's instructions. Within each experiment, the baseline was set in the exponential phase of the amplification curve, and based on the intersection point of the baselines with the amplification curve, a Ct value was assigned by the instrument. This Ct value was then assigned a QTY value based on the Standard Curve. The standard curve in the various experiments herein used 1 ng to 300 ng of RNA extracted from the same cell line used for the experimental transfections. […]

Substance	Avg ENaCα Expression	Mean (level of ENaCα expression normalized to the level of GAPDH)	Percent Reduction of the ENaCα mRNA relative to a non-targeting control siNA (NTC) [%]	Avg GAPDH Expression	pIC50	Human % KD (efficacy of ENaCα mRNA knockdown)
B GuGGcuGuGccuAcAucuu TTB / AAGAuGuAGGcAcAGccAcUU (sense GUGGCUGUGCCUACAUCUUTT; antisense AAGAUGUAGGCACAGCCACUU; siRNA; sense: DNA at AGT, 2'-fluoro at CU, [invAb] at 5' end, 3' end, backbone not given here; antisense: sugars from the 5' end rrrmfmfmmmfmfmmffmfmm, backbone not given here) [Site 1385]	90.81	0.81	−23.6	119.04	–	–
B uuAuGGAuGAuGGuGGcuu TTB / AAGccAccAucAuccAuAAUU (sense UUAUGGAUGAUGGUGGCUUTT; antisense AAGCCACCAUCAUCCAUAAUU; siRNA; B caps on sense ends, letter-case modifications not given here, further chemistry not given here) [Site 1181]	36.75	0.55	64.7	70.22	9.40	65-80%
B uGuGcAAccAGAAcAAAuc TTB / GAUuuGuucuGGuuGcAcAUU (chain 1 UGUGCAACCAGAACAAAUCTT; chain 2 GAUUUGUUCUGGUUGCACAUU; siRNA; B caps on sense ends, letter-case modifications not given here, further chemistry not given here) [Site 782]	39.99	0.61	60.9	66.25	9.44	60-85%
B GcuGuGccuAcAucuucuA TTB / UAGAAGAuGuAGGcAcAGcUU (sense GCUGUGCCUACAUCUUCUATT; antisense UAGAAGAUGUAGGCACAGCUU; siRNA; B caps on sense ends, letter-case modifications not given here, further chemistry not given here) [Site 1388]	36.49	0.30	54.1	120.24	9.72	55-80%
B GGcuGuGccuAcAucuucu TTB / AGAAGAuGucGGcAcAGccUU (sense GGCUGUGCCUACAUCUUCUTT; antisense AGAAGAUGUCGGCACAGCCUU; siRNA; sense: DNA at AGT, 2'-fluoro at CU, [invAb] at 5' end, 3' end, backbone not given here; antisense: sugars from the 5' end rrrmmmfmffmmfmfmmffmm, backbone not given here) [Site 1387]	46.10	0.43	34.2	106.19	–	–
B ccAuccGccuGGuGuGcuc TTB / GAGcAcAccAGGcGGAuGGUU (chain 1 CCAUCCGCCUGGUGUGCUCTT; chain 2 GAGCACACCAGGCGGAUGGUU; siRNA; chain 1: DNA at AGT, 2'-fluoro at CU, [invAb] at 5' end, 3' end, backbone not given here; chain 2: sugars from the 5' end rrrfmfmffmmmfmmmfmmmm, backbone not given here) [Site 311]	65.43	1.29	17.0	53.29	–	–
B uGGcuGuGccuAcAucuuc TTB / GAAGAuGuAGGcAcAGccAUU (sense UGGCUGUGCCUACAUCUUCTT; antisense GAAGAUGUAGGCACAGCCAUU; siRNA; sense: DNA at AGT, 2'-fluoro at CU, [invAb] at 5' end, 3' end, backbone not given here; antisense: sugars from the 5' end rrrmmfmfmmmfmfmmffmmm, backbone not given here) [Site 1386]	72.05	0.64	2.8	112.63	–	–
B AccGcAuGAAGAcGGccuu TTB / AAGGccGucuucAuGcGGuUU (chain 1 ACCGCAUGAAGACGGCCUUTT; chain 2 AAGGCCGUCUUCAUGCGGUUU; siRNA; chain 1: DNA at AGT, 2'-fluoro at CU, [invAb] at 5' end, 3' end, backbone not given here; chain 2: sugars from the 5' end rrrmffmfffffmfmfmmfmm, backbone not given here) [Site 338]	65.83	0.90	42.2	76.32	–	–
B cccuGcuGuccAcAGuGAc TTB / GUCAcuGuGGAcAGcAGGGUU (sense CCCUGCUGUCCACAGUGACTT; antisense GUCACUGUGGACAGCAGGGUU; siRNA; sense: DNA at AGT, 2'-fluoro at CU, [invAb] at 5' end, 3' end, backbone not given here; antisense: sugars from the 5' end rrrmffmfmmmfmmfmmmmmm, backbone not given here) [Site 1121]	72.95	1.65	−6.0	46.89	–	–
B uccuGuccAAccuGGGcAG TTB / CUGcccAGGuuGGAcAGGAUU (sense UCCUGUCCAACCUGGGCAGTT; antisense CUGCCCAGGUUGGACAGGAUU; siRNA; sense: DNA at AGT, 2'-fluoro at CU, [invAb] at 5' end, 3' end, backbone not given here; antisense: sugars from the 5' end rrrfffmmmffmmmfmmmmmm, backbone not given here) [Site 1739]	75.77	0.75	−13.8	100.60	–	–
B GGcAGccAGuGGAGccuGu TTB / ACAGGcuccAcuGGcuGccUU (sense GGCAGCCAGUGGAGCCUGUTT; antisense ACAGGCUCCACUGGCUGCCUU; siRNA; sense: DNA at AGT, 2'-fluoro at CU, [invAb] at 5' end, 3' end, backbone not given here; antisense: sugars from the 5' end rrrmmffffmffmmffmffmm, backbone not given here) [Site 1753]	84.05	0.66	0.6	128.19	–	–
